Read-outs that look alike come from different tables or passages of the source.
Molecular target: T1, human CGT (Homo sapiens, UniProt Q16880)
T1 sequence (Q16880 21-541): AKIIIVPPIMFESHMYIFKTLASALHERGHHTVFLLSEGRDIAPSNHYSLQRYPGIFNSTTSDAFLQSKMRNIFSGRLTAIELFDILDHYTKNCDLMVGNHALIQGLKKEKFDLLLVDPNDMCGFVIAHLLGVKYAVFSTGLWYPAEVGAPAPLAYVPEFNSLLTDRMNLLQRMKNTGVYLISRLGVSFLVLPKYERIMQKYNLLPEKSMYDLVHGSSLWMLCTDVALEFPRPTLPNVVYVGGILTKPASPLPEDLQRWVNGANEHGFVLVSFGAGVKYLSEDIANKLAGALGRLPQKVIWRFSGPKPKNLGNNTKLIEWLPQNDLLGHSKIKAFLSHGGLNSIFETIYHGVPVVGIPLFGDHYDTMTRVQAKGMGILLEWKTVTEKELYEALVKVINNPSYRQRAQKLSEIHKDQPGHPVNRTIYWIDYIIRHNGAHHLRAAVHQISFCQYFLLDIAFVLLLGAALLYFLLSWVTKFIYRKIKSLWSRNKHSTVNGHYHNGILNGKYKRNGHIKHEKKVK
Test: Assay 1: CGT Enzymatic Assay (RapidFire/MS/MS, 0.01% Tween 80)
Format: biochemical
Settings: Table 1, Compounds of Formula (I) and Formula (II), CGT enzymatic assay, read-out: IC50

[1] = C6-NBD-dihydro-galactosylceramide readout

| IC50 [1] | IC50 | SMILES |
| --- | --- | --- |
| < 1000 nM | – | CCC1(CC)N(c2ccc(Cl)cc2)C(=O)N(c2ccc(Cl)cc2)C1(O)c1cccc(C#N)c1 (stereo not drawn) [Example 321, 3-(1,3-bis(4-chlorophenyl)-5,5-diethyl-4-hydroxy-2-oxoimidazolidin-4-yl)benzonitrile] |
| – | < 1000 nM | CC#Cc1cccc(C2(O)C(C)N(c3ccc(Cl)cc3)C(=O)N2c2ccc(Cl)cc2)c1 (stereo not drawn) [Compound 103, 1,3-bis(4-chlorophenyl)-4-hydroxy-5-methyl-4-(3-(prop-1-yn-1-yl)phenyl)imidazolidin-2-one] |
| – | < 1000 nM | CCC[C@H]1N(c2ccc(Br)cc2)C(=O)N(c2ccc(Br)cc2)C1(O)c1cccc(Cl)c1 (stereo partly drawn) [Compound 119-2, (5R)-1,3-bis(4-bromophenyl)-4-(3-chlorophenyl)-4-hydroxy-5-propylimidazolidin-2-one] |
| – | > 50000 nM | CCCCCCCCC1(O)C(=O)N(c2ccc(Br)cc2)C(=O)N1c1ccc(Br)cc1 (stereo not drawn) [Example 199, 1,3-bis(4-bromophenyl)-5-hydroxy-5-octylimidazolidine-2,4-dione] |
| – | 1000 to 10000 nM | CC(C)C1(c2cccc(C#N)c2)C(O)N(c2ccc(Cl)cc2)C(=O)N1c1ccc(Cl)cc1 (stereo not drawn) [Example 231, 3-(1,3-bis(4-chlorophenyl)-5-hydroxy-4-isopropyl-2-oxoimidazolidin-4-yl)benzonitrile] |
| – | < 1000 nM | CN(C)C[C@@H]1N(c2ccc(Cl)cc2)C(=O)N(c2ccc(Cl)cc2)C1(O)c1cccc(OC(F)(F)F)c1 (single isomer, unassigned) [Example 166-1] |
| 1000 to 10000 nM | – | N#Cc1cccc(C2(O)N(c3ccc(Cl)cc3)C(=O)N(c3ccc(Cl)cc3)C23CNC3)c1 (stereo not drawn) [Compound 300, 3-(5,7-bis(4-chlorophenyl)-8-hydroxy-6-oxo-2,5,7-triazaspiro[3.4]octan-8-yl)benzonitrile 2,2,2-trifluoroacetate] |
| – | < 1000 nM | CCC1(C)N(c2ccc(Cl)cc2)C(=O)N(c2ccc(Cl)cc2)C1(O)c1cccc(OC(F)(F)F)c1 (stereo not drawn) [Example 163, 1,3-bis(4-chlorophenyl)-4-ethyl-5-hydroxy-4-methyl-5-(3-(trifluoromethoxy)phenyl)imidazolidin-2-one] |
| – | < 1000 nM | CCC[C@H]1N(c2ccc(Cl)cc2)C(=O)N(c2ccc(Cl)cc2)C1(O)c1cccc(C(F)(F)F)c1 (stereo partly drawn) [Compound 87-2, (5R)-1,3-bis(4-chlorophenyl)-4-hydroxy-5-propyl-4-(3-(trifluoromethyl)phenyl)imidazolidin-2-one] |
| – | > 50000 nM | COC(=O)C1(O)[C@@H](C)N(c2ccc(Br)cc2)C(=O)N1c1ccc(Br)cc1 (single isomer, unassigned) [Compound 84-2] |
| < 1000 nM | – | CC(F)(F)c1cccc(C2(O)N(c3ccc(Cl)cc3)C(=O)N(c3ccc(Cl)cc3)C23COC3)c1 (stereo not drawn) [Compound 271, 5,7-bis(4-chlorophenyl)-8-(3-(1,1-difluoroethyl)phenyl)-8-hydroxy-2-oxa-5,7-diazaspiro[3.4]octan-6-one] |
| – | > 50000 nM | O=C1N(c2ccc(F)cc2)CC(O)(c2ccccc2)N1c1ccc(F)cc1 (stereo not drawn) [Example 11, 1,3-bis(4-fluorophenyl)-4-hydroxy-4-phenylimidazolidin-2-one] |
| 1000 to 10000 nM | – | CC1(C)N(c2ccc(Cl)cc2)C(=O)N(c2ccc(Cl)cc2)C1(O)c1cccc(C2COC2)c1 (stereo not drawn) [Example 324-2, 1,3-bis(4-chlorophenyl)-4-hydroxy-5,5-dimethyl-4-(3-(oxetan-3-yl)phenyl)imidazolidin-2-one] |
| – | < 1000 nM | CCC[C@@H]1N(c2ccc(Br)cc2)C(=O)N(c2ccc(Br)cc2)C1(O)c1cccc(OC(F)(F)F)c1 (stereo partly drawn) [Compound 112-1, (5S)-1,3-bis(4-bromophenyl)-4-hydroxy-5-propyl-4-(3-(trifluoromethoxy)phenyl)imidazolidin-2-one] |
| – | 10000 to 50000 nM | O=C1N(c2ccc(Br)cc2)C(O)[C@@](c2ccccc2)(C2CC2)N1c1ccc(Br)cc1 (stereo partly drawn) [Example 209-1, (4S)-1,3-bis(4-bromophenyl)-4-cyclopropyl-5-hydroxy-4-phenylimidazolidin-2-one] |
| – | < 1000 nM | O=C1N(c2ccc(Cl)cc2)[C@@H](C2CCC2)C(O)(c2cccc(OC(F)(F)F)c2)N1c1ccc(Cl)cc1 (stereo partly drawn) [Example 191-1, (5S)-1,3-bis(4-chlorophenyl)-5-cyclobutyl-4-hydroxy-4-(3-(trifluoromethoxy)phenyl)imidazolidin-2-one] |
| < 1000 nM | – | Cc1ccc(N2C(=O)N(c3ccc(C)cc3)C(O)(c3cccc(OC(F)(F)F)c3)C23CCCC3)cc1 (stereo not drawn) [Example 327, 4-hydroxy-1,3-di-p-tolyl-4-(3-(trifluoromethoxy)phenyl)-1,3-diazaspiro[4.4]nonan-2-one] |
| – | < 1000 nM | CCCC1N(c2ccc(Cl)cc2)C(=O)N(c2ccc(Cl)cc2)C1(O)c1cccc(C)c1 (stereo not drawn) [Compound 90, 1,3-bis(4-chlorophenyl)-4-hydroxy-5-propyl-4-(m-tolyl)imidazolidin-2-one] |

| IC50 [1] | IC50 | SMILES |
| --- | --- | --- |
| – | < 1000 nM | CC[C@H]1N(c2ccc(Cl)cc2)C(=O)N(c2ccc(Cl)cc2)C1(O)c1cccc(C#N)c1 (single isomer, unassigned) [Compound 106-2] |
| < 1000 nM | – | COC[C@]1(C)N(c2ccc(Cl)cc2)C(=O)N(c2ccc(Cl)cc2)C1(O)c1cccc(C#N)c1 (single isomer, unassigned) [Compound 297-2] |
| – | < 1000 nM | CC#Cc1cccc(C2(O)[C@H](C)N(c3ccc(Cl)cc3)C(=O)N2c2ccc(Cl)cc2)c1 (stereo partly drawn) [Compound 103-1, (5S)-1,3-bis(4-chlorophenyl)-4-hydroxy-5-methyl-4-(3-(prop-1-yn-1-yl)phenyl)imidazolidin-2-one] |
| – | < 1000 nM | CCC[C@]1(C)N(c2ccc(Cl)cc2)C(=O)N(c2ccc(Cl)cc2)C1(O)c1cccc(OC(F)(F)F)c1 (single isomer, unassigned) [Example 170-2] |
| – | < 1000 nM | N#Cc1cccc(C2(O)[C@H](C3CC3)N(c3ccc(Cl)cc3)C(=O)N2c2ccc(Cl)cc2)c1 (stereo partly drawn) [Example 187-1, 3-((5S)-1,3-bis(4-chlorophenyl)-5-cyclopropyl-4-hydroxy-2-oxoimidazolidin-4-yl)benzonitrile] |
| < 1000 nM | – | Cc1ccc(N2C(=O)N(c3ccc(C#N)cc3)C(O)(c3cccc(C#N)c3)C23CCC3)cc1 (stereo not drawn) [Compound 282, 3-(7-(4-cyanophenyl)-8-hydroxy-6-oxo-5-(p-tolyl)-5,7-diazaspiro[3.4]octan-8-yl)benzonitrile] |
| – | < 1000 nM | O=C1N(c2ccc(Br)cc2)C(O)[C@](c2ccccc2)(C2CC2)N1c1ccc(Br)cc1 (stereo partly drawn) [Example 209-2, (4R)-1,3-bis(4-bromophenyl)-4-cyclopropyl-5-hydroxy-4-phenylimidazolidin-2-one] |
| < 1000 nM | – | CC[C@]1(C)N(c2ccc(C#N)cc2)C(=O)N(c2ccc(C#N)cc2)C1(O)c1cccc(OC(F)(F)F)c1 (stereo partly drawn) [Example 319-2, 4′-((4S)-4-ethyl-5-hydroxy-4-methyl-2-oxo-5-(3-(trifluoromethoxy)phenyl)imidazolidine-1,3-diyl)dibenzonitrile] |
| – | 1000 to 10000 nM | O=C1N(c2ccc(Br)cc2)CC(O)(c2cccc(Cl)c2)N1c1ccc(Br)cc1 (stereo not drawn) [Example 35, 1,3-bis(4-bromophenyl)-4-(3-chlorophenyl)-4-hydroxyimidazolidin-2-one] |
| – | < 1000 nM | CC1(C)N(c2ccc(Cl)cc2)C(=O)N(c2ccc(Cl)cc2)C1(O)c1cccnc1 (stereo not drawn) [Example 189, 1,3-bis(4-chlorophenyl)-4-hydroxy-5,5-dimethyl-4-(pyridin-3-yl)imidazolidin-2-one] |
| – | < 1000 nM | O=C1N(c2ccc(Cl)cc2)C2(CC2)C(O)(c2cccc(C(F)(F)F)c2)N1c1ccc(Cl)cc1 (stereo not drawn) [Example 225, 4,6-bis(4-chlorophenyl)-7-hydroxy-7-(3-(trifluoromethyl)phenyl)-4,6-diazaspiro[2.4]heptan-5-one] |
| – | > 50000 nM | Cc1cccc(-c2cn(-c3ccc(Cl)cc3)c(=O)n2-c2ccc(Cl)cc2)c1 [Compound 259, 1,3-bis(4-chlorophenyl)-4-(m-tolyl)-1,3-dihydro-2H-imidazol-2-one] |
| < 1000 nM | – | Cc1ccc(N2C(=O)N(c3ccc(C#N)cc3)C3(CCC3)C2(O)c2cccc(OC(F)(F)F)c2)cc1 (stereo not drawn) [Compound 279, 4-(8-hydroxy-6-oxo-7-(p-tolyl)-8-(3-(trifluoromethoxy)phenyl)-5,7-diazaspiro[3.4]octan-5-yl)benzonitrile] |
| – | < 1000 nM | O=C1N(c2ccc(Cl)cc2)[C@]2(CCOC2)[C@@](O)(c2cccc(OC(F)(F)F)c2)N1c1ccc(Cl)cc1 [Compound 234-2, (4S,5S)-1,3-bis(4-chlorophenyl)-4-hydroxy-4-(3-(trifluoromethoxy)phenyl)-7-oxa-1,3-diazaspiro[4.4]nonan-2-one] |
| – | 1000 to 10000 nM | C[C@H]1N(c2ccccc2)C(=O)N(c2ccccc2)C1(O)c1cccc(OC(F)(F)F)c1 (stereo partly drawn) [Example 230-2, (5R)-4-hydroxy-5-methyl-1,3-diphenyl-4-(3-(trifluoromethoxy)phenyl)imidazolidin-2-one] |
| – | 1000 to 10000 nM | C#Cc1cc(Cl)cc(C2(O)CN(c3ccc(Cl)cc3)C(=O)N2c2ccc(Cl)cc2)c1 (stereo not drawn) [Compound 108, 4-(3-chloro-5-ethynylphenyl)-1,3-bis(4-chlorophenyl)-4-hydroxyimidazolidin-2-one] |
| – | > 50000 nM | CCCc1c(CCC)n(-c2ccc(Br)cc2)c(=O)n1-c1ccc(Br)cc1 [Example 22, 1,3-bis(4-bromophenyl)-4,5-dipropyl-1,3-dihydro-2H-imidazol-2-one] |
| – | > 50000 nM | COC(=O)C1(O)[C@H](C)N(c2ccc(Br)cc2)C(=O)N1c1ccc(Br)cc1 (single isomer, unassigned) [Compound 84-1] |
